Experimental data reported in ChEMBL document CHEMBL1201862, “PubChem BioAssay data set” (2004).
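In this assay, cells in 96-well plates receive the compound at five concentrations for 48 hours. Endpoints are linearly interpolated between the surrounding concentrations. GI50 marks 50% less growth.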 Calls of active or inactive are those of the source. Rule as the data show it: active = GI50 up to about 1.1 µM and inactive = higher.

Experiments:
Assay in all cases: DTP human tumour cell line panel, 48 h
CCRF-CEM = test system: CCRF-CEM
DLD-1 = test system: DLD-1
DMS-273 = test system: DMS-273
KM-20L2 = test system: KM-20L2
LOX IMVI = test system: LOX IMVI
M19-MEL = test system: M19-MEL
NCI-H226 = test system: NCI-H226
NCI-H23 = test system: NCI-H23
NCI-H460 = test system: NCI-H460
NCI/ADR-RES = test system: NCI/ADR-RES
SNB-19 = test system: SNB-19
SW-620 = test system: SW-620
U-251 = test system: U-251
UACC-257 = test system: UACC-257
XF498 = test system: XF498
Malme-3M = test system: Malme-3M
MDA-MB-231 = test system: MDA-MB-231
MDA-N = test system: MDA-N
PC-3 = test system: PC-3
T47D = test system: T47D

Structure (SMILES) | GI50 (CCRF-CEM) | GI50 (DLD-1) | GI50 (DMS-273) | GI50 (KM-20L2) | GI50 (LOX IMVI) | GI50 (M19-MEL) | GI50 (NCI-H226) | GI50 (NCI-H23) | GI50 (NCI-H460) | GI50 (NCI/ADR-RES) | GI50 (SNB-19) | GI50 (SW-620) | GI50 (U-251) | GI50 (UACC-257) | GI50 (XF498) | GI50 (Malme-3M) | GI50 (MDA-MB-231) | GI50 (MDA-N) | GI50 (PC-3) | GI50 (T47D)
CNC(=O)C(C)C1CCC2(C)C=CC(=O)C(C)=C2C1O (centres undefined) | > 100 µM (inactive) | > 100 µM (inactive) | > 37.9 µM (inactive) | > 100 µM (inactive) | > 100 µM (inactive) | > 100 µM (inactive) | > 100 µM (inactive) | > 100 µM (inactive) | > 100 µM (inactive) | > 47 µM (inactive) | > 100 µM (inactive) | > 57.4 µM (inactive) | > 44.8 µM (inactive) | > 100 µM (inactive) | > 100 µM (inactive) | – | – | – | – | –
COC(=O)N1C=Cc2c(c(C)c3c([nH]c4ccccc43)c2C)C1C (centres undefined) | 14.8 µM (inactive) | 14.8 µM (inactive) | 18 µM (inactive) | 12.2 µM (inactive) | 16.4 µM (inactive) | 20.8 µM (inactive) | 17.6 µM (inactive) | 17.7 µM (inactive) | 22.5 µM (inactive) | – | 18 µM (inactive) | 17.7 µM (inactive) | 16 µM (inactive) | 17.3 µM (inactive) | 17.7 µM (inactive) | 18.1 µM (inactive) | – | – | – | –
O=C(CC1=NCCN1)c1ccccc1 | > 511 µM (inactive) | > 750 µM (inactive) | > 750 µM (inactive) | > 750 µM (inactive) | > 750 µM (inactive) | > 750 µM (inactive) | > 536 µM (inactive) | > 750 µM (inactive) | > 511 µM (inactive) | > 750 µM (inactive) | > 750 µM (inactive) | > 750 µM (inactive) | > 750 µM (inactive) | > 750 µM (inactive) | > 750 µM (inactive) | > 617 µM (inactive) | – | – | – | –
S=c1c2nc[nH]c2ncn1CCSC1=NC=NC2=NC=NC21 (centres undefined) | > 82.2 µM (inactive) | > 100 µM (inactive) | 64.4 µM (inactive) | > 100 µM (inactive) | 44.7 µM (inactive) | > 100 µM (inactive) | > 100 µM (inactive) | > 100 µM (inactive) | > 100 µM (inactive) | > 100 µM (inactive) | > 100 µM (inactive) | > 100 µM (inactive) | > 100 µM (inactive) | > 81.3 µM (inactive) | > 100 µM (inactive) | > 100 µM (inactive) | > 100 µM (inactive) | 61.7 µM (inactive) | > 100 µM (inactive) | > 94.2 µM (inactive)
COc1cc(/C=C/C(=O)O)ccc1C(=O)OCc1ccccc1 | > 100 µM (inactive) | > 100 µM (inactive) | > 100 µM (inactive) | > 100 µM (inactive) | > 100 µM (inactive) | > 100 µM (inactive) | > 100 µM (inactive) | > 100 µM (inactive) | > 100 µM (inactive) | > 100 µM (inactive) | > 100 µM (inactive) | > 100 µM (inactive) | > 100 µM (inactive) | > 100 µM (inactive) | > 100 µM (inactive) | > 100 µM (inactive) | – | – | – | –
O=C(NNc1ccc([N+](=O)[O-])cc1)C1OC(CO)C(O)C1O (centres undefined) | 43.7 µM (inactive) | 47.1 µM (inactive) | > 100 µM (inactive) | > 100 µM (inactive) | > 100 µM (inactive) | > 100 µM (inactive) | > 100 µM (inactive) | > 100 µM (inactive) | > 100 µM (inactive) | – | > 100 µM (inactive) | 21.8 µM (inactive) | > 100 µM (inactive) | > 100 µM (inactive) | > 100 µM (inactive) | > 100 µM (inactive) | – | – | – | –
CN(C)CCNC(=O)c1cccc2cc3cc(O)ccc3nc12 | 0.59 µM (active) | 1.42 µM (inactive) | 0.662 µM (active) | 2.44 µM (inactive) | 0.857 µM (active) | 1.2 µM (inactive) | 0.621 µM (active) | 1.24 µM (inactive) | 0.361 µM (active) | 1.48 µM (inactive) | 0.869 µM (active) | 0.611 µM (active) | 1.36 µM (inactive) | 1.26 µM (inactive) | 0.916 µM (active) | 1.22 µM (inactive) | – | – | – | –
Nc1cc(O)c2cc(/N=N/c3ccc(/N=N/c4ccc(/N=N/c5ccc6cc(S(=O)(=O)O)cc(S(=O)(=O)O)c6c5)c5ccccc45)c4cc(S(=O)(=O)O)ccc34)c(S(=O)(=O)O)cc2c1 | 61.5 µM (inactive) | > 100 µM (inactive) | 97.1 µM (inactive) | > 10 µM (inactive) | > 100 µM (inactive) | > 100 µM (inactive) | 36.7 µM (inactive) | > 100 µM (inactive) | > 100 µM (inactive) | > 100 µM (inactive) | > 100 µM (inactive) | > 100 µM (inactive) | > 100 µM (inactive) | > 100 µM (inactive) | > 100 µM (inactive) | > 100 µM (inactive) | – | – | – | –
COC(=O)C1=C(O)c2cc3c(cc2[C@H](c2cc(OC)c(OC)c(OC)c2)C1C(=O)OC)OCO3 (some centres undefined) | > 100 µM (inactive) | 67 µM (inactive) | 65.2 µM (inactive) | > 100 µM (inactive) | > 100 µM (inactive) | 39.5 µM (inactive) | 33 µM (inactive) | > 100 µM (inactive) | 61 µM (inactive) | – | > 100 µM (inactive) | 80.2 µM (inactive) | 82.8 µM (inactive) | 47.3 µM (inactive) | 25.1 µM (inactive) | 28.9 µM (inactive) | – | – | – | –
